Source: patent publication US8466113B2, “4-isopropylphenyl glucitol compounds as SGLT1 inhibitors” (Taisho Pharmaceutical Co., Ltd., priority 2009, dated 2013)

Tests used:
[1] = biological target: T1, human SGLT2 protein modified to have LeuGluSerArgGlyProVal added to the carboxy-terminal final residue (Homo sapiens, UniProt P31639); assay: Inhibition test for sodium-dependent sugar uptake in CHO-K1 cells stably expressing human SGLT2, Method A; type: cell-based; conditions: uptake 37° C., 60 minutes, read-out: IC50 for hSGLT2 Method A
T1 construct: expressed in transfected cells; host or cells: CHO-K1
T1 sequence (P31639 with tags, fused parts or gaps): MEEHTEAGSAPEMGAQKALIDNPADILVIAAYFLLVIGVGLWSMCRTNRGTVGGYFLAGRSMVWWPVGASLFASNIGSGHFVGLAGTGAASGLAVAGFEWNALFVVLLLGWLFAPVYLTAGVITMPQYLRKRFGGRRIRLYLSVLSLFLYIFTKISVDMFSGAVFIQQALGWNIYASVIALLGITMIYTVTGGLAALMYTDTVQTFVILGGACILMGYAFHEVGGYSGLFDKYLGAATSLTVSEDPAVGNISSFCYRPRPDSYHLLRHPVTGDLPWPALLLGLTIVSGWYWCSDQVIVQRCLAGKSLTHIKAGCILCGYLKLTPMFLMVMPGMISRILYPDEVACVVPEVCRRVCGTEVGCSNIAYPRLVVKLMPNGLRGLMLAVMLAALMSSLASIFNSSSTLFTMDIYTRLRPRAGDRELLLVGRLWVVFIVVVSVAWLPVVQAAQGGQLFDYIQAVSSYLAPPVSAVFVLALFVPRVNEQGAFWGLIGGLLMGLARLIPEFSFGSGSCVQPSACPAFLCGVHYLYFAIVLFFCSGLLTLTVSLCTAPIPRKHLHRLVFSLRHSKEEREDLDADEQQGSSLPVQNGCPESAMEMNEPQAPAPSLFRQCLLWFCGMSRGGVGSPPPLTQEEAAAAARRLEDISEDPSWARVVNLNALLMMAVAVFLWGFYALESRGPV
Protocol: (2) Creation of CHO-K1 Cells Stably Expressing Human SGLT2
Method A (described in WO2007/136116): A plasmid vector expressing human SGLT2 protein modified to have LeuGluSerArgGlyProVal added to the carboxy-terminal final residue was transfected into CHO-K1 cells using lipofectamine 2000 (Invitrogen). The cells were cultured in the presence of 500 μg/mL hygromycin B to select resistant strains, followed by screening in the system shown below using sugar uptake capacity as an indicator to obtain SGLT2-expressing cells.
(§1) (3) Inhibition Test for Sodium-Dependent Sugar Uptake in Stably Expressing Cells
(§2) The stably expressing cells prepared above were used in the following test.
(§3) Pretreatment buffer (140 mM choline chloride, 2 mM KCl, 1 mM CaCl2, 1 mM MgCl2, 10 mM HEPES/5 mM Tris, pH 7.4) was added in a volume of 200 μL to the cells stably expressing SGLT1 or 2 mL for Method A and 200 μL for Method B to the cells stably expressing SGLT2, followed by incubation for 20 minutes. The pretreatment buffer was removed and replaced by uptake buffer containing a test compound (1 mM methyl α-D-glucopyranoside (containing [^14C]methyl α-D-glucopyranoside), 140 mM NaCl, 2 mM KCl, 1 mM CaCl2, 1 mM MgCl2, 10 mM HEPES/5 mM Tris, pH 7.4) in a volume of 75 μL for SGLT1 and SGLT2 in Method B or 200 μL for SGLT2 in Method A. Uptake reaction was performed at 37° C. for 30 minutes (SGLT1) or 60 minutes (SGLT2). After the reaction, the cells were washed twice with washing buffer (10 mM methyl α-D-glucopyranoside, 140 mM choline chloride, 2 mM KCl, 1 mM CaCl2, 1 mM MgCl2, 10 mM HEPES/5 mM Tris, pH 7.4) in a volume of 200 μL for SGLT1 and SGLT2 in Method B or 2 mL for SGLT2 in Method A, and then dissolved in a 0.25 M NaOH solution (75 μL for SGLT1 and SGLT2 in Method B or 400 μL for SGLT2 in Method A). A liquid scintillator (Perkin Elmer) was added and mixed well with each sample, followed by measurement of radioactivity using a β-ray analyzer. For the control group, uptake buffer containing no test compound was prepared. Moreover, another uptake buffer containing choline chloride instead of NaCl was also prepared for basal uptake.
(§4) For determination of IC50 values, test compounds prepared at 6 appropriate concentrations were used and their concentrations required for 50% inhibition of the amount of sugar uptake (IC50 values) were calculated relative to the amount of sugar uptake in the control group (100%).

human SGLT1 = biological target: T2, human SGLT1 (Homo sapiens, UniProt P13866); assay: Inhibition test for sodium-dependent sugar uptake in CHO-K1 cells stably expressing human SGLT1; type: cell-based; conditions: [14C]methyl α-D-glucopyranoside uptake, 37° C., 30 minutes, read-out: IC50 for hSGLT1
T2 construct: expressed in transfected cells; host or cells: CHO-K1
T2 sequence (P13866 1-664): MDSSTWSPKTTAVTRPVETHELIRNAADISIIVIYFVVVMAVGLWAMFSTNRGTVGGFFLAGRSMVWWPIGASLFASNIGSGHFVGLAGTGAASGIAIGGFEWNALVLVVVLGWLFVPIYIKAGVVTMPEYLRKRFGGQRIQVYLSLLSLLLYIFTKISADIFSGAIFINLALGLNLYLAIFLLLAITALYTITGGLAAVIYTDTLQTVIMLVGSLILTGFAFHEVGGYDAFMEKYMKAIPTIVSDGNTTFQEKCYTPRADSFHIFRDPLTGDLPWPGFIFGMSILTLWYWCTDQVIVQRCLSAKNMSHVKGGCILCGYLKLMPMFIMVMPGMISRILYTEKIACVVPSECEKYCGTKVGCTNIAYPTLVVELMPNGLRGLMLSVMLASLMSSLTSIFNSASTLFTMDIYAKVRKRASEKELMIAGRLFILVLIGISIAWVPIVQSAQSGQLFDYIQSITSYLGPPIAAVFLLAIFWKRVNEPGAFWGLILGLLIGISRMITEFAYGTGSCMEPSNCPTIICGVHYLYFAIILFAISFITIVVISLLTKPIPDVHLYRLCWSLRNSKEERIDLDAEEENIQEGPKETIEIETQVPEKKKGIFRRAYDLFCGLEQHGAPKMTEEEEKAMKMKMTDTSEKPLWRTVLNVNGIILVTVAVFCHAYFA
Protocol: (1) Creation of CHO-K1 Cells Stably Expressing Human SGLT1
A plasmid vector expressing human SGLT1 protein was transfected into CHO-K1 cells using lipofectamine 2000 (Invitrogen). The cells were cultured in the presence of 500 μg/mL geneticin to select resistant strains, followed by screening in the system shown below using sugar uptake capacity as an indicator to obtain SGLT1-expressing cells.
as §1, §2, §3, §4

| IC50 [1] | IC50 (human SGLT1) | SMILES |
| --- | --- | --- |
| 2690 nM | 35 nM | Cc1cc(/C=C/C(C)(C)C(=O)NC(C)(C)C(=O)NCCN(C)C)ccc1Cc1cc([C@@H]2O[C@H](CO)[C@@H](O)[C@H](O)[C@H]2O)c(O)cc1C(C)C [Example 1-2] |
| 802 nM | 42 nM | Cc1cc(/C=C/C(C)(C)C(=O)NC(C)(C)C(=O)N2CCC(N(C)C)CC2)ccc1Cc1cc([C@@H]2O[C@H](CO)[C@@H](O)[C@H](O)[C@H]2O)c(O)cc1C(C)C [Example 5-2] |
| 3110 nM | 27 nM | Cc1cc(/C=C/C(C)(C)C(=O)NC(C)(C)C(=O)NCC(C)(C)N)ccc1Cc1cc([C@@H]2O[C@H](CO)[C@@H](O)[C@H](O)[C@H]2O)c(O)cc1C(C)C [Example 6-2] |
| 14800 nM | 54 nM | COc1cc(C(C)C)c(Cc2ccc(/C=C/C(C)(C)C(=O)NC(C)(C)C(=O)NCC(C)(C)N)cc2C)cc1[C@@H]1O[C@H](CO)[C@@H](O)[C@H](O)[C@H]1O [Example 13-2] |
| 1280 nM | 29 nM | COc1cc(C(C)C)c(Cc2ccc(/C=C/C(C)(C)C(=O)NC(C)(C)C(=O)NCCN(C)C)cc2)cc1[C@@H]1O[C@H](CO)[C@@H](O)[C@H](O)[C@H]1O [Example 15-2] |
